One block for each compound: values may come before it.
Assays:
[1] = tested on: retinoic acid receptors α, β or γ; assay: Competitive binding with ³H-T-RA to nucleosol of RAR-transfected COS-1 cells; set-up: species or system human; details: concentrations as high as 1 µM; 5 nM ³H-T-RA, 4°C, 30 minutes
Method: Competitive binding studies were performed as follows. COS-1 cells were transfected with the cDNAs encoding RARs α, β or γ in the expression vector pSG5 (described in Example 1). The cells were cultured for 72 hours and the nucleosol fraction isolated (14). Nucleosol fractions were incubated (14) at 4°C for 30 minutes with 5 nM ³H-T-RA with various concentrations of unlabeled 13-cis RA. Bound was separated from free radioactivity using PD10 columns as described in Example 1 above.

RARα [2] = target: T1, RARα (Homo sapiens, UniProt P10276); assay: Displacement of radiolabel from nucleosol of COS-1 cells treated in culture with ³H-T-RA; details: excess unlabeled T-RA (10 µM), 4 hours at 4°C
T1 sequence (P10276 1-462): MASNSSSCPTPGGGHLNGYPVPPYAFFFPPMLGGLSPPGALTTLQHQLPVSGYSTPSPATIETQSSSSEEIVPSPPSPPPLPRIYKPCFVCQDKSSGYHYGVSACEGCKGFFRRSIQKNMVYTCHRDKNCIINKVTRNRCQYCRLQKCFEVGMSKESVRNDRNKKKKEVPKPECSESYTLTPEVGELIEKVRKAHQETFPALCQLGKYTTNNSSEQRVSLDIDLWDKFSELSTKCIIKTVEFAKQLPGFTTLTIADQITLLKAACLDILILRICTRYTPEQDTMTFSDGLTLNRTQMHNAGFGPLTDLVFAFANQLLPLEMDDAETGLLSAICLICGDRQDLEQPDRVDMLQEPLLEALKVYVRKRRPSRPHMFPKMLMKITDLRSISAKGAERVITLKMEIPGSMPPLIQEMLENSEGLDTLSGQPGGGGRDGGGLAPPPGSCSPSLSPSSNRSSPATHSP

RARα [3] = target: T1, RARα; assay: In vitro binding of ³H-T-RA to nucleosol of transfected COS-1 cells; details: nucleosol from RARα-transfected COS-1 cells; 10 nM ³H-T-RA, 2 hours at 4°C

SMILES: CC1=C(/C=C/C(C)=C/C=C/C(C)=C\C(=O)O)C(C)(C)CCC1 [13-cis RA, 13-cis retinoic acid]
competition with ³H-T-RA for binding [1]: minimal competition for binding

SMILES: CC1=C(/C=C/C(C)=C/C=C/C(C)=C/C(=O)O)C(C)(C)CCC1 [T-RA, all-trans retinoic acid]
displacement of bound radiolabel (RARα [2]): displaces radioactivity bound in the RARα nucleosol

binding of ³H-T-RA (RARα [3]): considerable binding
SMILES: [3H]C(/C=C(C)/C=C/C1=C(C)CCCC1(C)C)=C([3H])\C(C)=C\C(=O)O [³H-T-RA]
